Legend:
THZ531 = compound: CN(C)C/C=C/C(=O)Nc1ccc(C(=O)N2CCC[C@@H](Nc3ncc(Cl)c(-c4c[nH]c5ccccc45)n3)C2)cc1 [THZ531]; assay: GR value, 72 h; higher = faster growth (1 = untreated, <0 = killing);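 also: breast cancer and non-malignant breast epithelial lines, nine half-log doses, viable cells counted by Hoechst and LIVE/DEAD dye imaging versus time-zero plates and DMSO controls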
[1] = compound: CC(=O)c1c(C)c2cnc(Nc3ccc(N4CCNCC4)cn3)nc2n(C2CCCC2)c1=O; assay: as above
THZ1 [2] = compound: T1, CN(C)C/C=C/C(=O)Nc1ccc(C(=O)Nc2cccc(Nc3ncc(Cl)c(-c4c[nH]c5ccccc45)n3)c2)cc1 [THZ1]; assay: as above
Flavopiridol [3] = compound: T2, CN1CC[C@H](c2c(O)cc(O)c3c(=O)cc(-c4ccccc4Cl)oc23)[C@H](O)C1 [Flavopiridol]; assay: as above
[4] = compound: CC(=O)c1c(C)c2cnc(Nc3ccc(N4CCNCC4)cn3)nc2n(C2CCCC2)c1=O; assay: increase in dead-cell fraction, 72 h; higher = more death;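 also: breast cancer cell lines in 384-well plates, stained with Hoechst plus LIVE/DEAD far red dye and imaged, cells above an LDR intensity threshold counted dead, Hoechst-negative corpses included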
THZ1 [5] = compound: T1, THZ1; assay: as above
[6] = compound: CCN1CCN(Cc2ccc(Nc3ncc(F)c(-c4cc(F)c5nc(C)n(C(C)C)c5c4)n3)nc2)CC1; assay: as above
BSJ-03-123 = compound: CC(=O)c1c(C)c2cnc(Nc3ccc(N4CCN(CCOCCOCCOCCNC(=O)COc5cccc6c5C(=O)N(C5CCC(=O)NC5=O)C6=O)CC4)cn3)nc2n(C2CCCC2)c1=O [BSJ-03-123]; assay: as above
[7] = compound: CCc1cnn2c(NCc3ccc[n+]([O-])c3)cc(N3CCCC[C@H]3CCO)nc12; assay: as above
Flavopiridol [8] = compound: T2, Flavopiridol; assay: as above
LEE011/Ribociclib = compound: CN(C)C(=O)c1cc2cnc(Nc3ccc(N4CCNCC4)cn3)nc2n1C1CCCC1 [LEE011/Ribociclib]; assay: as above
Neratinib/HKI272 = compound: CCOc1cc2ncc(C#N)c(Nc3ccc(OCc4ccccn4)c(Cl)c3)c2cc1NC(=O)/C=C/CN(C)C [Neratinib/HKI272]; assay: as above

SUM149
GR value (THZ531; 0.0001 µM): 0.986 GR
GR value (THZ531; 0.0003162 µM): 0.996 GR
GR value (THZ531; 0.001 µM): 0.931 GR
GR value (THZ531; 0.003162 µM): 1.03 GR
GR value (THZ531; 0.01 µM): 1.05 GR
GR value (THZ531; 0.03162 µM): 0.999 GR
GR value (THZ531; 0.1 µM): 0.963 GR
GR value (THZ531; 0.3162 µM): 0.598 GR
GR value (THZ531; 1 µM): -0.539 GR
GR value ([1]; 0.0003162 µM): 1.02 GR
GR value ([1]; 0.001 µM): 1.03 GR
GR value ([1]; 0.003162 µM): 0.983 GR
GR value ([1]; 0.01 µM): 0.981 GR
GR value ([1]; 0.03162 µM): 0.82 GR
GR value ([1]; 0.1 µM): 0.701 GR
GR value ([1]; 0.3162 µM): 0.623 GR
GR value ([1]; 1 µM): 0.567 GR
GR value ([1]; 3.162 µM): 0.485 GR
GR value (THZ1 [2]; 0.0001 µM): 0.968 GR
GR value (THZ1 [2]; 0.0003162 µM): 0.963 GR
GR value (THZ1 [2]; 0.001 µM): 1.04 GR
GR value (THZ1 [2]; 0.003162 µM): 0.927 GR
GR value (THZ1 [2]; 0.01 µM): 0.923 GR
GR value (THZ1 [2]; 0.03162 µM): 0.704 GR
GR value (THZ1 [2]; 0.1 µM): 0.165 GR
GR value (THZ1 [2]; 0.3162 µM): -0.351 GR
GR value (THZ1 [2]; 1 µM): -0.506 GR
GR value (Flavopiridol [3]; 0.0001 µM): 0.972 GR
GR value (Flavopiridol [3]; 0.0003162 µM): 1.01 GR
GR value (Flavopiridol [3]; 0.001 µM): 0.951 GR
GR value (Flavopiridol [3]; 0.003162 µM): 0.944 GR
GR value (Flavopiridol [3]; 0.01 µM): 0.862 GR
GR value (Flavopiridol [3]; 0.03162 µM): 0.964 GR
GR value (Flavopiridol [3]; 0.1 µM): 0.788 GR
GR value (Flavopiridol [3]; 0.3162 µM): 0.177 GR
GR value (Flavopiridol [3]; 1 µM): -0.591 GR
increase in dead-cell fraction ([4]; 0.0003162 µM): 0.0026
increase in dead-cell fraction ([4]; 0.001 µM): 0.0019
increase in dead-cell fraction ([4]; 0.003162 µM): 0.0012
increase in dead-cell fraction ([4]; 0.01 µM): -0.0029
increase in dead-cell fraction ([4]; 0.03162 µM): -0.003
increase in dead-cell fraction ([4]; 0.1 µM): 0.0002
increase in dead-cell fraction ([4]; 0.3162 µM): -0.0014
increase in dead-cell fraction ([4]; 1 µM): -0.0001
increase in dead-cell fraction ([4]; 3.162 µM): 0.0028
increase in dead-cell fraction (THZ1 [5]; 0.0001 µM): -0.0005
increase in dead-cell fraction (THZ1 [5]; 0.0003162 µM): -0.0052
increase in dead-cell fraction (THZ1 [5]; 0.001 µM): -0.0029
increase in dead-cell fraction (THZ1 [5]; 0.003162 µM): 0.0113
increase in dead-cell fraction (THZ1 [5]; 0.01 µM): -0.0015
increase in dead-cell fraction (THZ1 [5]; 0.03162 µM): 0.0274
increase in dead-cell fraction (THZ1 [5]; 0.1 µM): 0.083
increase in dead-cell fraction (THZ1 [5]; 0.3162 µM): 0.445
increase in dead-cell fraction (THZ1 [5]; 1 µM): 0.589
increase in dead-cell fraction ([6]; 0.001 µM): -0.0036
increase in dead-cell fraction ([6]; 0.003162 µM): -0.0058
increase in dead-cell fraction ([6]; 0.01 µM): -0.0009
increase in dead-cell fraction ([6]; 0.03162 µM): -0.0068
increase in dead-cell fraction ([6]; 0.1 µM): -0.0045
increase in dead-cell fraction ([6]; 0.3162 µM): -0.0069
increase in dead-cell fraction ([6]; 1 µM): -0.0076
increase in dead-cell fraction ([6]; 3.162 µM): -0.0046
increase in dead-cell fraction ([6]; 10 µM): 0.0956
increase in dead-cell fraction (BSJ-03-123; 0.001 µM): -0.0068
increase in dead-cell fraction (BSJ-03-123; 0.003162 µM): -0.0064
increase in dead-cell fraction (BSJ-03-123; 0.01 µM): -0.0053
increase in dead-cell fraction (BSJ-03-123; 0.03162 µM): 0.0051
increase in dead-cell fraction (BSJ-03-123; 0.1 µM): 0.0006
increase in dead-cell fraction (BSJ-03-123; 0.3162 µM): -0.0032
increase in dead-cell fraction (BSJ-03-123; 1 µM): 0.0245
increase in dead-cell fraction (BSJ-03-123; 3.162 µM): 0.0364
increase in dead-cell fraction (BSJ-03-123; 10 µM): 0.217
increase in dead-cell fraction ([7]; 0.0001 µM): -0.0003
increase in dead-cell fraction ([7]; 0.0003162 µM): -0.0062
increase in dead-cell fraction ([7]; 0.001 µM): 0.0017
increase in dead-cell fraction ([7]; 0.003162 µM): 0.0022
increase in dead-cell fraction ([7]; 0.01 µM): 0.021
increase in dead-cell fraction ([7]; 0.03162 µM): 0.756
increase in dead-cell fraction ([7]; 0.1 µM): 0.832
increase in dead-cell fraction ([7]; 0.3162 µM): 0.831
increase in dead-cell fraction ([7]; 1 µM): 0.814
increase in dead-cell fraction (Flavopiridol [8]; 0.0001 µM): 0.0065
increase in dead-cell fraction (Flavopiridol [8]; 0.0003162 µM): -0.0003
increase in dead-cell fraction (Flavopiridol [8]; 0.001 µM): 0.0038
increase in dead-cell fraction (Flavopiridol [8]; 0.003162 µM): -0.0072
increase in dead-cell fraction (Flavopiridol [8]; 0.01 µM): -0.0008
increase in dead-cell fraction (Flavopiridol [8]; 0.03162 µM): 0.0051
increase in dead-cell fraction (Flavopiridol [8]; 0.1 µM): 0.0079
increase in dead-cell fraction (Flavopiridol [8]; 0.3162 µM): 0.114
increase in dead-cell fraction (Flavopiridol [8]; 1 µM): 0.787
increase in dead-cell fraction (LEE011/Ribociclib; 0.001 µM): -0.0066
increase in dead-cell fraction (LEE011/Ribociclib; 0.003162 µM): -0.0033
increase in dead-cell fraction (LEE011/Ribociclib; 0.01 µM): 0.001
increase in dead-cell fraction (LEE011/Ribociclib; 0.03162 µM): -0.0061
increase in dead-cell fraction (LEE011/Ribociclib; 0.1 µM): -0.0037
increase in dead-cell fraction (LEE011/Ribociclib; 0.3162 µM): 0.0068
increase in dead-cell fraction (LEE011/Ribociclib; 1 µM): 0.0043
increase in dead-cell fraction (LEE011/Ribociclib; 3.162 µM): 0.0014
increase in dead-cell fraction (LEE011/Ribociclib; 10 µM): 0.0135
increase in dead-cell fraction (Neratinib/HKI272; 0.0003162 µM): -0.0005
increase in dead-cell fraction (Neratinib/HKI272; 0.001 µM): -0.0026
increase in dead-cell fraction (Neratinib/HKI272; 0.003162 µM): -0.0047
increase in dead-cell fraction (Neratinib/HKI272; 0.01 µM): -0.0034
increase in dead-cell fraction (Neratinib/HKI272; 0.03162 µM): 0.001
increase in dead-cell fraction (Neratinib/HKI272; 0.1 µM): 0.0172
increase in dead-cell fraction (Neratinib/HKI272; 0.3162 µM): 0.0405
increase in dead-cell fraction (Neratinib/HKI272; 1 µM): 0.0409
increase in dead-cell fraction (Neratinib/HKI272; 3.162 µM): 0.0594
